Results from PMC4010497, “Synthesis and Evaluation of Fluorine-Substituted Phenyl Acetate Derivatives as Ultra-Short Recovery Sedative/Hypnotic Agents” (PLoS ONE, 2014).

Experiments:
[1] = In vitro metabolic half-life in monkey whole blood; type: in vitro ADME; settings: male, Cynomolgus monkey (n = 3), 37°C, read-out: Mean t1/2 Value
Description: Human whole blood stability experiments were conducted in whole blood from four human donors (male, 18–25 years). Single experiments were conducted with pooled blood from Sprague-Dawley rats (male, 8 weeks, n = 3), New Zealand White rabbits (male, 8–10 weeks, n = 3), Beagle dogs (male, 2–3 years, n = 3) and Cynomolgus monkeys (male, 3–4 years, n = 3). All the blood samples were provided by Xuzhou Medical College. A 1.35-ml aliquot of blood was warmed at 37°C for 5 min and hypnotic (from a 40 mM stock in DMSO solution) was added to a final concentration of 200 µM. After the specified incubation time, a 150-µl sample was removed and the metabolic reaction was quenched using 150-µl acetonitrile. Zero time-point samples were prepared by adding 150-µl acetonitrile (using a 4 mM stock in DMSO) to 150-µl blood before addition of the hypnotic. The quenched samples were centrifuged, and the supernatant was separated and stored at −20°C until analyzed. Hypnotic concentrations in thawed samples were determined by high-performance liquid chromatography using a 3-µm phenyl 4.6×50-mm C-A-25, ACE column with the UV detector set at 240 nm. […] The lower limit of quantitation of this assay is 3 µM and the accuracy within 15% at 10 µM. The metabolic half-lives were quantified from the incubation time-dependent change in drug concentration.

[2] = system: GABAA and dopamine D2, D3, H1, 5HT1A, 5HT2A, 5HT2C, 5HTT, α1 and α2 receptors; settings: 50 µmol, GABAA vs off-target receptors
Description: All the new compounds were dissolved in 5% DMSO.
Total binding was determined in the absence of no-specific binding and compounds. Specific binding was determined in the presence of compounds. […]
Rat cerebral cortex was homogenized in 20 volumes of ice-cold Tris-HCl buffer (50 mM, pH 7.7) using an ULTRA TURAX homogeniser, and was then centrifuged at 32000 g for 10 min. […] The final pellet was resuspended in Tris-HCl buffer containing 10 µM Pargyline, 4 mM CaCl2 and 0.1% ascorbic acid. […] The incubation was followed by a rapid vacuum filtration through Whatman GF/B glass filters, and the filtrates were washed twice with 5 mL cold buffer and transferred to scintillation vials. Scintillation fluid (3.0 mL) was added and the radioactivity bound was measured using a Beckman LS 6500 liquid scintillation counter.
Rat cerebral cortex was homogenized in 20 volumes of ice-cold Tris-HCl buffer (50 mM, pH 7.7) using an ULTRA TURAX homogeniser, and centrifuged at 32000 g for 20 min. The resulting pellet was resuspended in the same quantity of the buffer centrifuged for 20 min. […] Scintillation fluid (3.0 mL) was added and the radioactivity bound was measured using a Beckman LS 6500 liquid scintillation counter.
The resulting pellet was resuspended in the same quantity of the buffer centrifuged for 20 min.

rat = type: in vivo
Description: All tests were performed during the light period. Groups of mice, rats and rabbits were injected intravenously (lateral tail vein) over 10 s with each dose of test compound, placed in separate boxes to reduce external stimuli and assessed for the loss of righting reflex. Dosing was performed using mg/kg scheme. A set of dose levels was chosen, and depending on whether the loss of righting reflex was observed, extra doses were introduced to provide data for the loss of righting reflex over a narrow dose range to allow potency calculations. From the percentage of mice, rats and rabbits in each group showing loss of righting reflex for ≥30 s, a probit analysis (SAS Institute) was performed to obtain an HD50 for each compound with 95% confidence limits.
Immediately following the injection, the mice, rats and rabbits were tested for loss of righting reflex. […] Once a loss was observed, the interval between the loss of righting reflex and the return to righting reflex was recorded. The anesthetized animals recovered righting reflexes spontaneously. To compare the duration of LORR of each compound at equipotent doses, groups of mice, rats and rabbits were injected with each compound at 2× HD50 over 10 s.
Time to walk was the time required after righting before mice and rabbits walked from the center to the periphery of a 30-cm diameter dise.
The rotarod test was conducted to evaluate the recovery to the motor coordination. Before the LORR test, mice were trained for 2 consecutive days. Trained mice could maintain their balance on rod for more than 2 mins. After the mice could walk from the center to the periphery of a 30-cm diameter dise, they were put on the rotarod. Mice were classified as behavioral recovery when, on being placed on the rod, they could maintain their balance for 20 s. The time to behavioral recovery was the time required after mice walked from the centre to the periphery of a 30-cm diameter disc before they could maintain their balance on rod for 20 s.

Question: Which half-life at 200 µM [1] does the source give for `CCOc1cc(CC(=O)OCC(F)(F)F)ccc1OCC(=O)N(CC)CC` [Compound 5j, 2,2,2-trifluoroethyl 2-(4-(2-(diethylamino)-2-oxoethoxy)-3-ethoxyphenyl)acetate] here?
Answer: Its half-life at 200 µM is 48.9 ± 8.8 min.

Question: What about the binding selectivity profile [2] of the same molecule?
Answer: Its binding selectivity profile is “selective binding to the GABAA receptor”.

Question: What about the “Duration of LORR” value (rat; 2× HD50 dose, mean ± SD) of the same molecule?
Answer: The value was 66.5 ± 8.7 s.

Question: What about the Time to walk (rat; 2× HD50 dose, mean ± SD) of the same molecule?
Answer: Its Time to walk is 14.2 ± 5.4 s.

Question: What about the “time to behavioral recovery” value (rat; 2× HD50 dose, mean ± SD) of the same molecule?
Answer: Its value is 22.8 ± 3.2 s.

Question: And the HD50 (rat; IV, 95% confidence limits)?
Answer: Its HD50 is 12.9 (10.6∼13.7) mg/kg.
